Several values for one entry are separate records, joined by “and”; a condition that tells them apart may be missing. Equal values may be shown once.
Assay: Example 2: phase 3 trial, enavogliflozin 0.3 mg vs dapagliflozin 10 mg once a day for 24 weeks added to metformin in patients with type 2 diabetes (same efficacy, exploratory and safety endpoints)
Format: in vivo, human
Description: Subjects who met the inclusion/exclusion criteria were administered a placebo of the clinical trial drug under single-blind (subject blinding) conditions during a 2-week run-in period while continuing to receive metformin. […] The randomized subjects were administered two tablets of the clinical trial drug for each administration group once a day, and then visited the institution at weeks 6, 12, 18, and 24 during the 24-week administration period to conduct efficacy and safety evaluations.
• 1. Change in HbA1c at week 24 after administration of clinical trial drug compared to Visit 2 (randomization)
• 1. Change in HbA1c at each time point of weeks 6, 12, and 18 after administration of clinical trial drug compared to Visit 2 (randomization) • 2. Change in FPG at each time point of weeks 6, 12, 18, and 24 after administration of clinical trial drug compared to Visit 2 (randomization) • 3. Proportion of subjects achieving HbA1c<7% at each time point of weeks 6, 12, 18, and 24 after administration of clinical trial drug • 4. Proportion of subjects achieving HbA1c<6.5% at each time point of weeks 6, 12, 18, and 24 after administration of clinical trial drug • 5. Proportion of subjects achieving therapeutic response (HbA1c change (HbA1c at Visit 2-HbA1c at each evaluation time point)>0.5% or HbA1c<7% at each evaluation time point compared to Visit 2 (randomization)) at each time point of weeks 6, 12, 18 and 24 after administration of clinical trial drug
• 1. Change in fasting c-peptide at each time point of weeks 6, 12, 18, and 24 after administration of clinical trial drug compared to Visit 2 (randomization) • 2. Change in body weight at each time point of weeks 6, 12, 18, and 24 after administration of clinical trial drug compared to Visit 2 (randomization) • 3. Change in fasting lipid concentration (total cholesterol, LDL-C, HDL-C, and triglycerides) at each time point of weeks 6, 12, 18, and 24 after administration of clinical trial drug compared to Visit 2 (randomization) • 4. Changes in systolic or diastolic blood pressure at each time point of weeks 6, 12, 18, and 24 after administration of clinical trial drug compared to Visit 2 (randomization) • 5. Changes in β-cell function and insulin resistance measured by HOMA-β and HOMA-IR at each time point of weeks 6, 12, 18, and 24 after administration of clinical trial drug compared to Visit 2 (randomization) • 6. Changes in renal function-related indicators (UACR, UGCR) measured by UACR at each time point of weeks 6, 12, 18, and 24 after administration of clinical trial drug compared to Visit 2 (randomization) • 7. Changes in obesity-related indicators (adiponectin, leptin) at each time point of weeks 6, 12, 18, and 24 after administration of clinical trial drug compared to Visit 2 (randomization)

[1] = week 12, per-protocol set, enavogliflozin 0.3 mg, dapagliflozin 10 mg
[2] = week 18, listed as enavogliflozin
[3] = week 18, modified per-protocol set 1, enavogliflozin 0.3 mg, dapagliflozin 10 mg
[4] = week 18, per-protocol set, enavogliflozin 0.3 mg vs dapagliflozin 10 mg
[5] = week 18, per-protocol set, enavogliflozin 0.3 mg, dapagliflozin 10 mg

OC[C@H]1O[C@@H](c2cc(Cc3ccc(C4CC4)cc3)c(Cl)c3c2CCO3)[C@H](O)[C@@H](O)[C@@H]1O [Enavogliflozin, (2S,3R,4R,5S,6R)-2-(7-chloro-6 (4-cyclopropylbenzyl)-2,3-dihydrobenzofuran-4-yl)-6-(hydroxymethyl)tetrahydro-2H-pyran-3,4,5-triol]
FPG, Median [1]: 115.50 mg/dL
HbA1c, Mean (SD) [1]: 6.97%
HbA1c, Median [1]: 6.83%
Subjects achieving HbA1c target of <6.5%, (%) [1]: (15.96) %
Subjects achieving therapeutic glycemic response, (%) [1]: (88.30) %
body weight, Mean (SD) [1]: 67.44(11.05) kg
body weight, Median [1]: 65.70 kg
fasting c-peptide, Mean (SD) [1]: 0.65(0.28) ng/mL
fasting c-peptide, Median [1]: 0.61 ng/mL
FPG change from baseline, LS mean (SE) (week 18): −33.44(1.60) mg/dL
HOMA-IR change from baseline, LS mean (SE) (week 18): −1.79(0.11)
HOMA-β change from baseline, LS mean (SE) (week 18): 10.97(3.06)
HbA1c change from baseline, LS mean (SE) (week 18): −0.74(0.06) % p
LDL-C change from baseline, LS mean (SE) (week 18): 1.42(1.86) mg/dL
Subjects achieving HbA1c target of <7% (week 18): (62.64) %
Subjects achieving HbA1c<6.5% (week 18): 9.89%
Subjects achieving therapeutic response (HbA1c change >0.5% or HbA1c<7%) (week 18): 80.22%
UACR change from baseline, LS mean (SE) (week 18): −23.05(5.06) g/kg
diastolic blood pressure change from baseline, LS mean (SE) (week 18): −4.80(0.78) mmHg
fasting c-peptide change from baseline, LS mean (SE) (week 18): −0.07(0.18) ng/ml
leptin change from baseline, LS mean (SE) (week 18): −2.49(0.52) ng/mL
systolic blood pressure change from baseline, LS mean (SE) (week 18): -6.69 mmHg
FPG change from baseline, LS mean difference (week 18, vs dapagliflozin): -2.31 mg/dL
HDL-C change from baseline, LS mean difference (week 18, vs dapagliflozin): -0.62 mg/dL
HOMA-IR change from baseline, LS mean difference (week 18, vs dapagliflozin): −0.32
HOMA-β change from baseline, LS mean difference (week 18, vs dapagliflozin): −2.53
HbA1c change from baseline, LS mean difference (week 18, vs dapagliflozin): −0.05 % p
LDL-C change from baseline, LS mean difference (week 18, vs dapagliflozin): -1.15 mg/dL
Odds ratio for achieving HbA1c<6.5% (week 18, vs dapagliflozin): 0.31
Odds ratio for achieving HbA1c<7% (week 18, vs dapagliflozin): 1.29
Odds ratio for achieving therapeutic response (week 18, vs dapagliflozin): 1.58
UACR change from baseline, LS mean difference (week 18, vs dapagliflozin): −10.10
UGCR change from baseline, LS mean difference (week 18, vs dapagliflozin): 18.25 mg/mg
body weight change from baseline, LS mean difference (week 18, vs dapagliflozin): 0.02 kg
diastolic blood pressure change from baseline, LS mean difference (week 18, vs dapagliflozin): −0.70 mmHg
fasting c-peptide change from baseline, LS mean difference (week 18, vs dapagliflozin): -0.02 ng/mL
leptin change from baseline, LS mean difference (week 18, vs dapagliflozin): -1.26 ng/mL
systolic blood pressure change from baseline, LS mean difference (week 18, vs dapagliflozin): −0.72 mmHg
total cholesterol change from baseline, LS mean difference (week 18, vs dapagliflozin): -1.77 mg/dL
triglyceride change from baseline, LS mean difference (week 18, vs dapagliflozin): -6.87 mg/dL
Subjects achieving HbA1c target of <7% [2]: 62.64%
UGCR change from baseline, LS mean (SE) [2]: 60.97(2.13) mg/mg and 42.72(2.15) mg/mg
Change from baseline in total cholesterol, ANCOVA LS mean difference (week 18, modified per-protocol set 1, enavogliflozin 0.3 mg vs dapagliflozin 10 mg): -1.77 mg/dL
Change from baseline in Total cholesterol, ANCOVA LS mean (SE) [3]: 7.80(2.16) mg/dL
Change from baseline in Total cholesterol, Mean (SD) [3]: 6.23(16.54) mg/dL
Change from baseline in total cholesterol, Median [3]: 6.00 mg/dL
fasting Total cholesterol, Mean (SD) [3]: 156.99(32.54) mg/dL
fasting Total cholesterol, Median [3]: 149.00 mg/dL
Change from baseline in FPG, ANCOVA LS mean difference [4]: -2.31 mg/dL
Change from baseline in HbA1c, ANCOVA LS mean difference [4]: −0.05 % p
Change from baseline in body weight, ANCOVA LS mean difference [4]: 0.02 kg
Change from baseline in fasting c-peptide, ANCOVA LS mean difference [4]: -0.02 ng/mL
Odds ratio for achieving HbA1c target of <6.5%, logistic regression model [4]: 0.31
Odds ratio for achieving therapeutic glycemic response, logistic regression model [4]: 1.58
Change from baseline in FPG, ANCOVA LS mean (SE) [5]: -33.44 mg/dL
Change from baseline in FPG, Mean (SD) [5]: -31.78 mg/dL
Change from baseline in FPG, Median [5]: -31.00 mg/dL
Change from baseline in HbA1c, ANCOVA LS mean (SE) [5]: −0.74 % p
Change from baseline in HbA1c, Mean (SD) [5]: −0.71 % p
Change from baseline in HbA1c, Median [5]: −0.56 % p
Change from baseline in body weight, ANCOVA LS mean (SE) [5]: −3.14(0.26) kg
Change from baseline in body weight, Mean (SD) [5]: −3.17(2.68) kg
Change from baseline in body weight, Median [5]: -3.20 kg
Change from baseline in fasting c-peptide, ANCOVA LS mean (SE) [5]: −0.08(0.02) ng/mL
Change from baseline in fasting c-peptide, Mean (SD) [5]: −0.07(0.18) ng/mL
Change from baseline in fasting c-peptide, Median [5]: -0.07 ng/mL
FPG, Mean (SD) [5]: 112.95 mg/dL
FPG, Median [5]: 113.00 mg/dL
HbA1c, Mean (SD) [5]: 7.02%
HbA1c, Median [5]: 6.89%
